Our source for the AUC0.5-8h and Cmax values is patent US20050232864A1, “Method for phenotyping using nmr spectroscopy” (priority 2002, published 2005).

This series is described as follows: Pharmacokinetic parameters of CBZ in rabbit plasma by DNP-NMR compared with LC-MS (Example 3). The format is in vivo. To be noted: single oral dose 40 mg/kg CBZ. On the procedure: Samples were collected at 8 time points over a period of 24 hours, at the following times: 0 min., 15 min., 30 min., 1 hour, 2 hours, 4 hours, 8 hours and 24 hours. 2 ml blood was withdrawn from the marginal ear vein of the rabbit. Plasma was extracted from the blood and divided into two samples, one for LC-MS analysis and one for DNP and NMR analysis (˜0.5 ml for each).
Rabbit plasma (400 μl) in a 2 ml vial was treated with acetonitrile (750 μl) and sonicated with a sonication probe for 15 sec. Another portion of acetonitrile (750 μl) was added to the vial so as to rinse the probe, the vial was closed, agitated briefly on a whirly mixer and centrifuged at 14 000 rev/min for about 1 min. The supernatant was transferred into a fresh vial in portions and evaporated in a ThermoSavant SPD 111V speedvac. Towards the end of the evaporation, 20 μl of an aqueous stock solution of EDTA (1 μg/μl) was added and the mixture was evaporated to dryness. 50 μl of the stock solvent as described below was added to the solid residue, and the added weight was noted. The sample was sonicated for 15 min to dissolve the residue and centrifuged to force the whole sample to the bottom of the vial. The vial was weighed together with a pipette tip and the sample was collected into the pipette tip and dispensed drop wise into liquid nitrogen. The used vial and pipette tip was weighed again to assess the actual weight of the sample. The cooled sample pellets were placed in a sample cup and administered into a DNP-polariser.
The volume of the radical is not accounted for in the calculation.
The sample was dissolved in heated (60° C.) methanol-D4 containing 75 μg EDTA per 7.0 ml of methanol. The dissolved sample was collected in a 10 mm NMR-tube fitted with a NMR-spinner and kept in a portable magnetic field (12 mT). The sample was moved from the polariser into the NMR magnet as expediently as possible making sure that the tube is protected in the portable magnetic field during the transport.
A 1D ^13C NMR-spectrum was acquired with a 10 mm Varian direct detection probe at 100.393 MHz (400 MHz ^1H). […] The NMR acquisition parameters were a spectral width of 40 kHz (400 ppm), an acquisition time of 2.5 s, and a pulse angle of 90. […] The spectrum was acquired 5 s after dissolution was initiated.
First, the reference ^13C-NMR signal from HP001 was analysed by selecting one Lorentzian line shape model function to describe the signal. The algorithm calculates phase, amplitude, damping (or line width in frequency domain) and frequency. The first order phase was set fixed at zero. […] All phases of the peaks were zero with respect to the main phase and a Lorentzian line shape model function was assumed. […] The first order phase was fixed at zero, the zero order phase was determined by the algorithm.
0.11 μg, 0.33 μg, 0.5 μg, 1.0 μg, 1.5 μg, and 2.0 μg were spiked into […] rabbit plasma, incubated at 37° C. and prepared as described in the section on sample preparation.

The mark [1] stands for this setting: Table 2, footnote: E-CBZ levels calculated, DNP-NMR.
[2] abbreviates: Table 2, footnote: E-CBZ levels calculated, LC-MS.

One may read the Cmax as the peak of the concentration-time curve. As to carbamazepine [CBZ], the AUC0.5-8h by setting is: (Table 1, CBZ levels, DNP-NMR) 52 µM·h; (Table 1, CBZ levels, LC-MS) 60 µM·h; under setting [1], 52 µM·h; under setting [2], 60 µM·h. Also, the Cmax by setting is: (Table 1, CBZ levels, DNP-NMR) 12 µM; (Table 1, CBZ levels, LC-MS) 13.3 µM; under setting [1], 12 µM; under setting [2], 13.3 µM.
